From patent US20250051282A1, “COMPOUNDS FOR TREATING POLYQ-RELATED NEURODEGENERATIVE DISORDERS” (HANGZHOU JIJING PHARMACEUTICAL TECHNOLOGY LIMITED, priority 2021, published 2025)

Each compound was assayed on ATXN1(60Q) (assay: Daoy-ATXN1(60Q)-mATXN1 MSD assay (CTG normalized)). Details: Daoy-Flag-ATXN1(60Q) stable cells, compound added Day 2, lysis Day 3, final DMSO 0.3%, read-out: Daoy-ATXN1(60Q)-mATXN1 MSD (CTG normalized) DC50.
Assay type: cell-based
Method: Protocol for MSD Assay: Daoy-ATXN1(600)-mATXN1 MSD (CTG normalized)
The Flag-ATXN1(60Q) gene is synthesized by Genescript and cloned into the pLVX-IRES-Puro vector (Takarabio, catalog No. 632183) using EcoRI/BamHI restriction enzyme sites. Lentivirus is made by transfecting HEK293T cells with pLVX-IRES-Puro-Flag-ATXN1(60Q) plasmids and packaging plasmids psPAX2 and pMD2.G at 4:3:1 ratio (8:6:[…], respectively) in 10 cm plates, and are harvested at 48 hours post transfection. Daoy cells (ATCC catalog No. HTB-186) seeded in T25 flasks are infected with the lentivirus in the presence of 8 µg/mL polybrene (Sigma, TR-1003-G) for 24 hours. 48 hours post infection, the cells are selected using 0.5 […] (Sigma, P8833) for more than 5 days until all cells in the uninfected group die. The expression of Flag-ATXN1(60Q) is verified by anti-Flag immunoblot using anti-Flag antibody (Sigma, F1804-200UG, M2).
As explained above, Daoy-Flag-ATXN1(60Q) cells are prepared as a stable cell line by infecting Daoy cells with lentivirus. The media for the cells is EMEM (ATTC, 30-2008) with 10% fetal bovin serum (FBS).
On Day 1, the Daoy-Flag-ATXN1(60Q) cells are seeded in a 96 well plate at a concentration of 1.2×10^4/well. On Day 2, the cells are treated with test compounds at test concentrations (compounds are serially diluted with DMSO to obtain test concentrations, such that final DMSO concentration is 0.3%). On Day 3, the cells are washed with 100 μL of phosphate-buffered saline (PBS) per well, and then 30 μL of radioimmuno-precipitation assay (RIPA) buffer (with protease and phosphatase inhibitor cocktail) is added to each well.
The well plate is then cooled on ice for 30 minutes in order to complete lysis, and MSD samples are prepared using 10 μL of Daoy-Flag-ATXN1-60Q lysate and 90 μL of RIPA buffer with gentle mixing. Each MSD sample has a total volume of 100 μL, and is used immediately or stored at −80° C.
A standard Meso Scale Discovery (MSD) plate is coated with anti-Flag (Sigma, F1804-200UG, M2) in PBS at 1:500 dilution ratio and 40 µL/well, and is incubated at 4° C. overnight with shaking at 600 rpm. Then, the MSD plate is washed 3 times with 150 µL/well of 1X TBST (tris-buffered saline (TBS) with Tween 20) buffer, and the MSD plate is blocked with 150 μL of blocking buffer [3% Blocker A in 1X TBST, (3 g Blocker A per 100 mL 1X TBST)] and shaken for 1 hour at 600 rpm at room temperature. Then, the MSD plate is washed three times with 150 μL/well of 1X TBST. Next, the diluted lysate samples (from Sample Preparation above) are added to the MSD plate at 25 μL/well, and the MSD plate is shaken at 600 rpm for 1 hour at room temperature. Then the MSD plate is washed 3 times with 150 μL/well of 1X TBST.
Detection antibody anti-Ataxin 1 (G-bio, ITA1916) (1:500), which is prepared in antibody detection buffer (1% Blocker A in 1X TBST), is then added to the MSD plate at 25 µL/well, and the MSD plate is shaken at 600 rpm for 1 hour at room temperature. The MSD plate is then washed three times with 150 μL/well of 1X TBST. Next, a secondary detection antibody, Goat anti-rabit (GAR) with SULFO-TAG (1:500), which is prepared in antibody detection buffer (1% Blocker A in 1X TBST), is added at 25 μL/well and the MSD plate is shaken at 600 rpm for 1 hour at room temperature. Then the MSD plate is washed 3 times with 150 μL/well of 1X TBST, and 2X MSD reading buffer is added at 150 μL/well (diluted from 4x MSD reading buffer with water). Finally, the signal from each well is measured on the MSD Meso QuickPle SQ120 Plate Reader. DC50 data is calculated using collaborate drug discovery (CDD) software (https://www.collaborativedrug.com/about).

O=C1Nc2ccc(Br)cc2/C1=C(/Nc1ccnnc1)c1ccccc1 [Example 39, (Z)-5-bromo-3-(phenyl(pyridazin-4-ylamino)methylene) indolin-2-one] and Nc1cccc(/C(Nc2ccnnc2)=C2/C(=O)Nc3ccc(Br)cc32)c1 [Example 60, (Z)-3-((3-aminophenyl) (pyridazin-4-ylamino)methylene)-5-bromo indolin-2-one] cannot be ordered by DC50: under 10 µM for the first, under 10 µM for the second.

Going from O=C1Nc2ccc(Br)cc2/C1=C(/Nc1cccnn1)c1ccccc1 [Example 44, (Z)-5-bromo-3-(phenyl(pyridazin-3-ylamino)methylene) indolin-2-one] to O=C1Nc2ccc(Br)cc2/C1=C(/Nc1cccnc1)c1cccc(O)c1 [Example 66, (Z)-5-bromo-3-((3-hydroxyphenyl) (pyridin-3-ylamino)methylene)indolin-2-one], the DC50 falls from over 30 µM to under 10 µM.

Compared with O=C1Nc2ccc(Br)cc2/C1=C(/Nc1cnccn1)c1cccc(O)c1 [Example 72, (Z)-5-bromo-3-((3-hydroxyphenyl) (pyrazin-2-ylamino)methylene)indolin-2-one], NCCOCCOCCOCCN/C(=C1\C(=O)Nc2ccc(Br)cc21)c1cccc(O)c1 [Example 36, (Z)-3-(13-amino-1-(3-hydroxyphenyl)-5,8,11-trioxa-2-azatridecylidene)-5-bromoindolin-2-one] is higher in DC50: under 10 µM for the first, 10 to 30 µM for the second.

Compared with C/C(=C1\C(=O)Nc2ccc(Br)cc21)c1ccc2[nH]c(=O)oc2c1 [Example 88, (E)-6-(1-(5-bromo-2-oxoindolin-3-ylidene)ethyl)benzo[d]oxazol-2(3H)-one], N/C(=C1\C(=O)Nc2ccc(Br)cc21)c1cc2ccccc2o1 [Example 76, (Z)-3-(amino (benzofuran-2-yl)methylene)-5-bromoindolin-2-one] is lower in DC50: over 30 µM for the first, under 10 µM for the second.
